From US9855242B2, “Composition for an immunomodulation” (Eberhard Karls Universität Tübingen Medizinische Fakultät, priority 2013, dated 2018)

Legend:
[1] = system: PBMCs of healthy donors; experiment: Metabolic activity of PBMCs, Promega CellTiter-Blue Assay; assay type: cell-based, human; details: one time 12.5 μM or 25 μM; after 48 hours; FIG. 8A
Protocol: (§1) The result is shown in the FIG. 8: A PBMCs of two healthy donors were one time treated with 12.5 μM or 25 μM of 6-PN or 8-PN and examined after 48 hours. B NKL cells were one time treated with 12.5 μM or 25 μM of 6-PN or 8-PN and examined after 48 h. In both immune cell populations and in both treatments an increase of a metabolic activity can be detected; shown is the average value +/−SD.

[2] = system: PI (3) K/Akt signaling pathway; details: MCF-7 cells in vitro; cited from earlier work
[3] = system: MCF7 cells; details: cited from earlier work
[4] = system: PC-3; details: in vitro; cited from earlier work
[5] = system: NK cells of healthy donors; experiment: NK cell viability with automated cell counting device (NC-250); assay type: cell-based, human; details: one time 12.5 μM or 25 μM; daily over 336 h; FIG. 6
Protocol: The examination therefore is independent from the experimentator. NK cells of two healthy donors were one time treated with 12.5 μM or 25 μM of 6-PN or 8-PN, respectively, and subsequently two independent points in time on a daily basis examined by means of a nucleo counter NC-250 cell counting device with respect to viability over a time period of 336 h; shown is the average value +/−SD.

[6] = target: MRP1 (Homo sapiens, UniProt P33527); details: cited from earlier work
MRP1, sequence (P33527 whole entry): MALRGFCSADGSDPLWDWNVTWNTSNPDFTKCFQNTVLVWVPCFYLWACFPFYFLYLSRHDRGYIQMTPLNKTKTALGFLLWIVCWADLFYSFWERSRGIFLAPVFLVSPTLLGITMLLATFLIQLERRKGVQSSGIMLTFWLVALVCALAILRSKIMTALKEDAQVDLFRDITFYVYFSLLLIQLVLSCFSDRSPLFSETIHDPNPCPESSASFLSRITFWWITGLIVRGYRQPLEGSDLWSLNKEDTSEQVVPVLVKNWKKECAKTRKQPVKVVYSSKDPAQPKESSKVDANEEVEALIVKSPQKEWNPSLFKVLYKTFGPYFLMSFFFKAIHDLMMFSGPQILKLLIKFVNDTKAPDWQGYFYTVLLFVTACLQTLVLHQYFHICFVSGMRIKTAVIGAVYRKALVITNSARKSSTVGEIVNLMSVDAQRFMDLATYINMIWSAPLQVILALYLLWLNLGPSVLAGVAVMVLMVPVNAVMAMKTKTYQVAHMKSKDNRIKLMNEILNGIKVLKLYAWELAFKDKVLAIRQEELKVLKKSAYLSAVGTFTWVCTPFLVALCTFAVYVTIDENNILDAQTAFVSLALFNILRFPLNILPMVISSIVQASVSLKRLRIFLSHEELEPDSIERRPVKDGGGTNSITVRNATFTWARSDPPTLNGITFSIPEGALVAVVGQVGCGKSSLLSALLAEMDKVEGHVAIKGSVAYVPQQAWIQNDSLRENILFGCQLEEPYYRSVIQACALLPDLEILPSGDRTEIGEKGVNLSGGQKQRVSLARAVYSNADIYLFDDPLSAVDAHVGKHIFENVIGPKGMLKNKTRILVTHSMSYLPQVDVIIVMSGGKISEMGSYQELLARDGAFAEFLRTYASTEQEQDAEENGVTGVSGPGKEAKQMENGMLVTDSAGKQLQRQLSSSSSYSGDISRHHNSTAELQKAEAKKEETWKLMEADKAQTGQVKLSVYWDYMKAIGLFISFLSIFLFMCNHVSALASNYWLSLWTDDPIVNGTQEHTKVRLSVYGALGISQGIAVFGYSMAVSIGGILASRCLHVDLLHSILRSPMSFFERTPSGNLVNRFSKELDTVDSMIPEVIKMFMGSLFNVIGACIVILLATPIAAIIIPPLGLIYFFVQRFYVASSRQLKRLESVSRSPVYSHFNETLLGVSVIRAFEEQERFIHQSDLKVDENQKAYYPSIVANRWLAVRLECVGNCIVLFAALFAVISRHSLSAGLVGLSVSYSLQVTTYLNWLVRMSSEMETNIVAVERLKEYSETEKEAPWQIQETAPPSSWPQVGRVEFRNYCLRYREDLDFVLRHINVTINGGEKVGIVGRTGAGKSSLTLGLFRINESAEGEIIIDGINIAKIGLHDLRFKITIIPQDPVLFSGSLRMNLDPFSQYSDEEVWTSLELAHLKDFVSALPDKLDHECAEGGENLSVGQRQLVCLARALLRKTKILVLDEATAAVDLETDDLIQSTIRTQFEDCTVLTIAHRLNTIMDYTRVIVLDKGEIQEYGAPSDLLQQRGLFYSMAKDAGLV

[7] = system: Human NK cells; experiment: Overall survival of NK cells, trypan blue staining and daily microscopic counting; assay type: cell-based; details: one time treatment with 6.25, 12.5, 25 or 50 μM; versus untreated control and SAHA treated cells; FIG. 3
Protocol: Human NK cells were treated with 6.25, 12.5, 25 or 50 μM of 6-PN or 8-PN. Subsequently via a tryptan blue staining and a daily microscopic counting in standardized C chip counter chambers the overall survival of NK cells was measured. As a reference dye again the HDACi SAHA (Vorinostat) was used. Shown is the average value with standard deviation from three independent experiments with expanded NK cells from three healthy human donors. The left arrow visualizes <10% of living cells in the SAHA treatment group; the right arrow visualizes <10% of living cells in the untreated control group.

[8] = system: histone deacetylases (HDACs) of classes I, II, and IV; details: cited from earlier work
[9] = system: DU145; details: in vitro; cited from earlier work
[10] = system: NK cell line NKL; experiment: Metabolic activity of NKL cells, Promega CellTiter-Blue Assay; assay type: cell-based; details: one time 12.5 μM or 25 μM; after 48 h; FIG. 8B
Protocol: as §1

[11] = system: Human NK cells; experiment: CellTiterBlue viability measurement on human NK cells; assay type: cell-based; details: 48 hours treatment; 6.25, 12.5, 25 or 50 μM of 6-PN or 8-PN, SAHA in low concentrations; versus untreated control; FIG. 2
Protocol: Human NK cells were treated for 48 hours with 6.25, 12.5, 25 or 50 μM of 6-PN or 8-PN. In the following a viability measurement was carried out (CellTiterBlue Viability Asasy, Promega, Madison, United States of America). The clinically used and established HDACi SAHA (Vorinostat) was used in low concentrations as a reference die for both natural HDACi 6-PN and 8-PN. Shown are the mean values with a standard deviation from three independent experiments with expanded NK cells from three healthy human donors. The horizontal continuous line visualizes the value of the untreated control; a decrease of the fluorescence signal means a reduction of the viability.

[12] = system: human hepG2 tumor cells; experiment: NK activity on HepG2 tumor cells by realtime cell monitoring (xCELLigence impedance); assay type: cell-based
Protocol: In a further experiment the NK activity on human hepG2 tumor cells by means of realtime cell monitoring (Roche Applied Sciences xCELLigence SP-System, Mannheim, Germany) was analyzed. […] The cellular impedance of the adherent tumor cells were measured as parameters for the cell status (cell number, viability, morphology, adhesion). As a positive control for the induction of cell death Triton X-100 was used. Three independent experiments with expanded NK cells from three healthy human donors were carried out. Shown are the average values with standard deviation of one exemplary experiment. The HepG2 tumor cells (target) were incubated at the start of the treatment (24 hours) with 25 μM of 6-PN or 8-PN or with NK cells (effector) (effector to target ratio (E:T)=1.25:1 or 2.5:1) or with the combination of HDACi and NK cells. The normalization happened at the start of the treatment and a decrease of the impedance (normalized cell index) means a reduction of the cell viability or the cell status, respectively.

[13] = system: angiogenesis; details: chorioallantois membrane assays; cited from earlier work
[14] = system: PBMCs of healthy donors; experiment: PBMC viability with automated cell counting device (NC-250); assay type: cell-based, human; details: one time 12.5 μM or 25 μM; daily over 336 hours; FIG. 7
Protocol: The result is shown in the FIG. 7: PBMCs of three healthy donors were one time treated with 12.5 μM or 25 μM of 6-PN or 8-PN and subsequently on a daily basis at independent points in time examined by means of a nucleo counter NC-250 cell counting device with respect to viability over a time period of 336 hours; shown is the average value +/−SD.

[15] = system: estrogen receptors of the uterus of rats; details: cited from earlier work
[16] = system: Hep3B; experiment: NK activity on a further tumor cell line by realtime cell monitoring; assay type: cell-based; details: compared with the HepG2 result
[17] = system: angiogenesis induced by the basic fibroblast growth factor and the vascular endothelial growth factor; details: three dimensional collagen gel; bFGF and VEGF induced; cited from earlier work
[18] = target: P glycoprotein (Homo sapiens, UniProt P08183); details: cited from earlier work
P glycoprotein, sequence (P08183 whole entry): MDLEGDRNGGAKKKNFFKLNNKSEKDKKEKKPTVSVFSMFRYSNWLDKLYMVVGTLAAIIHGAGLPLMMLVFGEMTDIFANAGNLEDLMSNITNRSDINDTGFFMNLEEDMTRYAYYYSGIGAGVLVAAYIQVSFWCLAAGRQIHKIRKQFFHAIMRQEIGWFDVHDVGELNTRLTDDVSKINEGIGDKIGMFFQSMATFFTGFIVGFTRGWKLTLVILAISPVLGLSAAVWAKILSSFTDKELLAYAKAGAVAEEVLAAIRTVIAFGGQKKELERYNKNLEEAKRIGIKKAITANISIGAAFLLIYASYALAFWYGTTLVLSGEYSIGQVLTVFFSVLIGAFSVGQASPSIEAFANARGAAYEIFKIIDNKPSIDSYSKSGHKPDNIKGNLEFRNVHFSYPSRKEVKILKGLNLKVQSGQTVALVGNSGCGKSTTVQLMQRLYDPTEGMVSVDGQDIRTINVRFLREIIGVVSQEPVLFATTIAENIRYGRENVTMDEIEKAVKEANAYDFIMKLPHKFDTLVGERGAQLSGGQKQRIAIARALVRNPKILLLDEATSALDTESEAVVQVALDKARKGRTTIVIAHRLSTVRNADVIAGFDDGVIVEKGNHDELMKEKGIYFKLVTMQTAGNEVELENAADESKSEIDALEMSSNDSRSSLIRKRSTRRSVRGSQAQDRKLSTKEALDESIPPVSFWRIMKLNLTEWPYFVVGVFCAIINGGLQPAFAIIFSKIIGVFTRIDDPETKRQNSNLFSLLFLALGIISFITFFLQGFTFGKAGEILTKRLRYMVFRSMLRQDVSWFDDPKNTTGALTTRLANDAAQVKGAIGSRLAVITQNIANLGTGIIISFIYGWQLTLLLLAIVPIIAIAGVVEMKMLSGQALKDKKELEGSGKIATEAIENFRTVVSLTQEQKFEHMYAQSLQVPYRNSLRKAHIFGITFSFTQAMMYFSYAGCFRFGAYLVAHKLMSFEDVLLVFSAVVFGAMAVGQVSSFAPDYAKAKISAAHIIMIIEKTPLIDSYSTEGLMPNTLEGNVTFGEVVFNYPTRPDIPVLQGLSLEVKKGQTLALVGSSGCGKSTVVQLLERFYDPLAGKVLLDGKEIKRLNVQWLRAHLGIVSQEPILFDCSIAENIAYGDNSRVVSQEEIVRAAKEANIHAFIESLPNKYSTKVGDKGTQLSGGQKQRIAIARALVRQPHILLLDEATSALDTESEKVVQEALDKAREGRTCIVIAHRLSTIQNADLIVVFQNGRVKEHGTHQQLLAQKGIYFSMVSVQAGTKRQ

[19] = system: melanoma tumor cells with adherent immune cells; experiment: Primary patient material: melanoma tumor cells with adherent immune cells, tumor cell count; assay type: cell-based, human; details: 12.5 μM or 25 μM; 48, 72, and 96 hours after the start of the treatment; **P<0.01; FIG. 5

SMILES	metabolic activity of PBMCs [1]	activation of the PI (3) K/Akt signaling pathway [2]	apoptosis in MCF7 cells [3]	antiproliferative effects on PC-3 [4]	viability of NK cells of healthy donors [5]	inhibition of MRP1 [6]	survival rate of the NK cells [7]	inhibition of histone deacetylases (HDACs) of classes I, II, and IV [8]	antiproliferative effects on DU145 [9]	metabolic activity of NKL cells [10]	viability of human NK cells [11]	activity of the human NK cells over human tumor cells (normalized cell index) ([12]; 25 μM with NK cells, E:T 1.25:1 or 2.5:1, FIG. 4)	sensitivity of HepG2 tumor cells against the compound ([12]; compound without NK cells)	angiogenesis in vivo [13]	viability of PBMCs of healthy donors [14]	binding affinity for estrogen receptors [15]	activity of NK cells on further tumor cell line [16]	angiogenesis in vitro [17]	inhibition of the P glycoprotein [18]	quantitative evaluation of the tumor cells (melanoma cells) [19]
CC(C)=CCc1c(O)cc(O)c2c1OC(c1ccc(O)cc1)CC2=O (stereo not drawn) [8-PN, 5,7-dihydroxy-2-(4-hydroxy-phenyl)-8-(3-methyl-but-2-enyl)-chroman-4-one]	increase the metabolic activity	directly inhibits the activation	induces furthermore the apoptosis	antiproliferative effects	increase/extend the viability	inhibition	significantly increased	distinct inhibitors	antiproliferative effects	increase the metabolic activity	in parts significant increase of the viability	increased activity of the human NK cells	low sensitivity	inhibits the angiogenesis	increase/extend viability	strong binding affinity	equivalent results	inhibits the angiogenesis	inhibition	significant decrease of the melanoma cells
O=C(CCCCCCC(=O)Nc1ccccc1)NO [SAHA, reference compound]											significant decrease of the viability									
